Measurements from patent US20100152434A1, “Protein Kinase-binding Nucleosides and Associated Methods” (priority 2007, published 2010).
pIC50: −log10 of the molar value. Read-outs that look alike come from different tables or passages of the source.

How the values were obtained:
NCI-H322M [1] = test system: NCI-H322M
HCT-15 [2] = test system: HCT-15
OVCAR-3 [3] = test system: OVCAR-3
CAKI-1 [4] = test system: CAKI-1
NCI-H322M [5] = test: cells; conditions: Homo sapiens
HCT-15 [6] = test: cells; conditions: Homo sapiens, HCT-15
SF-539 = test: cells; conditions: Homo sapiens, SF-539
SNB-19 = test: cells; conditions: Homo sapiens, SNB-19
SNB-75 = test: cells; conditions: Homo sapiens, SNB-75
M14 = test: cells; conditions: Homo sapiens, M14
OVCAR-3 [7] = test: cells; conditions: Homo sapiens, OVCAR-3
OVCAR-5 = test: cells; conditions: Homo sapiens, OVCAR-5
OVCAR-8 = test: cells; conditions: Homo sapiens, OVCAR-8
A498 = test: cells; conditions: Homo sapiens, A498
CAKI-1 [8] = test: cells; conditions: Homo sapiens, CAKI-1
SN12C = test: cells; conditions: Homo sapiens
UO-31 = test: cells; conditions: Homo sapiens, UO-31
[9] = Log10 Concentration −4.0, Molar
[10] = Log10 Concentration −5.0, Molar
[11] = Log10 Concentration −6.0, Molar
[12] = Log10 Concentration −7.0, Molar
[13] = Log10 Concentration −8.0, Molar

For `CNC(=O)NC[C@H]1O[C@@H](n2cnc3c(NC(=O)Nc4ccccc4)ncnc32)C(O[Si](C)(C)C(C)(C)C)[C@H]1O[Si](C)(C)C(C)(C)C` (some centres unmarked) [Compound 25, 2′,3′-Bis-O-(tert-butyldimethylsilyl)-5-deoxy-5′-[(N-methylcarbamoyl)amino]-N^6-(N-phenylcarbamoyl)adenosine], the TGI (NCI-H226) was 3.63E−6 Molar, the “Percent Growth” value (NCI-H226; [9]) was −48% and the “Percent Growth” value (NCI-H226; [10]) was −7%. For the same compound, the “Percent Growth” value (NCI-H226; [11]) was 105%, the “Percent Growth” value (NCI-H226; [12]) was 106% and the “Percent Growth” value (NCI-H226; [13]) was 102%. The TGI (NCI-H322M [1]) was greater than 1.00E−4 Molar, the “Percent Growth” value (NCI-H322M [1]; Log10 Concentration −4.0 Molar) was 21% and the “Percent Growth” value (NCI-H322M [1]; Log10 Concentration −5.0 Molar) was 39%. For the same compound, the “Percent Growth” value (NCI-H322M [1]; Log10 Concentration −6.0 Molar) was 105%, the “Percent Growth” value (NCI-H322M [1]; Log10 Concentration −7.0 Molar) was 106% and the “Percent Growth” value (NCI-H322M [1]; Log10 Concentration −8.0 Molar) was 102%. The TGI (NCI-H460) was 3.49E−6 Molar, the “Percent Growth” value (NCI-H460; [9]) was −75% and the “Percent Growth” value (NCI-H460; [10]) was −74%. For the same compound, the “Percent Growth” value (NCI-H460; [11]) was 88%, the “Percent Growth” value (NCI-H460; [12]) was 93% and the “Percent Growth” value (NCI-H460; [13]) was 104%. For the same compound, the TGI (NCI-H522) was 7.14E−6 Molar, the “Percent Growth” value (NCI-H522; [9]) was −49% and the “Percent Growth” value (NCI-H522; [10]) was −15%. The “Percent Growth” value (NCI-H522; [11]) was 90%, the “Percent Growth” value (NCI-H522; [12]) was 90% and the “Percent Growth” value (NCI-H522; [13]) was 92%. The TGI (HCT-116) was 4.31E−6 Molar, the “Percent Growth” value (HCT-116; [9]) was −100% and the “Percent Growth” value (HCT-116; [10]) was −59%. The “Percent Growth” value (HCT-116; [11]) was 102%, the “Percent Growth” value (HCT-116; [12]) was 105% and the “Percent Growth” value (HCT-116; [13]) was 107%. For the same compound, the TGI (HCT-15 [2]) was greater than 1.00E−4 Molar, the “Percent Growth” value (HCT-15 [2]; [9]) was 6% and the “Percent Growth” value (HCT-15 [2]; [10]) was 11%. For the same compound, the “Percent Growth” value (HCT-15 [2]; [11]) was 100%, the “Percent Growth” value (HCT-15 [2]; [12]) was 106% and the “Percent Growth” value (HCT-15 [2]; [13]) was 105%. The TGI (HT29) was 3.73E−6 Molar, the “Percent Growth” value (HT29; [9]) was −100% and the “Percent Growth” value (HT29; [10]) was −80%. The “Percent Growth” value (HT29; [11]) was 107%, the “Percent Growth” value (HT29; [12]) was 104% and the “Percent Growth” value (HT29; [13]) was 102%. For the same compound, the TGI (KM12) was 4.41E−6 Molar, the “Percent Growth” value (KM12; [9]) was −74% and the “Percent Growth” value (KM12; [10]) was −66%. For the same compound, the “Percent Growth” value (KM12; [11]) was 107%, the “Percent Growth” value (KM12; [12]) was 111% and the “Percent Growth” value (KM12; [13]) was 104%. The TGI (UACC-257) was 2.02E−5 Molar, the “Percent Growth” value (UACC-257; [9]) was −24% and the “Percent Growth” value (UACC-257; [10]) was 11%. For the same compound, the “Percent Growth” value (UACC-257; [11]) was 104%, the “Percent Growth” value (UACC-257; [12]) was 100% and the “Percent Growth” value (UACC-257; [13]) was 97%. For the same compound, the TGI (UACC-62) was 2.36E−5 Molar, the “Percent Growth” value (UACC-62; [9]) was −39% and the “Percent Growth” value (UACC-62; [10]) was 23%. For the same compound, the “Percent Growth” value (UACC-62; [11]) was 90%, the “Percent Growth” value (UACC-62; [12]) was 100% and the “Percent Growth” value (UACC-62; [13]) was 102%. The TGI (OVCAR-3 [3]) was 5.54E−6 Molar, the “Percent Growth” value (OVCAR-3 [3]; [9]) was −50% and the “Percent Growth” value (OVCAR-3 [3]; [10]) was −39%. The “Percent Growth” value (OVCAR-3 [3]; [11]) was 113%, the “Percent Growth” value (OVCAR-3 [3]; [12]) was 113% and the “Percent Growth” value (OVCAR-3 [3]; [13]) was 111%. For the same compound, the TGI (ACHN) was greater than 1.00E−4 Molar, the “Percent Growth” value (ACHN; [9]) was 2% and the “Percent Growth” value (ACHN; [10]) was 10%. For the same compound, the “Percent Growth” value (ACHN; [11]) was 105%, the “Percent Growth” value (ACHN; [12]) was 108% and the “Percent Growth” value (ACHN; [13]) was 107%. The TGI (CAKI-1 [4]) was 7.93E−6 Molar, the “Percent Growth” value (CAKI-1 [4]; [9]) was −33% and the “Percent Growth” value (CAKI-1 [4]; [10]) was −11%. The “Percent Growth” value (CAKI-1 [4]; [11]) was 96%, the “Percent Growth” value (CAKI-1 [4]; [12]) was 99% and the “Percent Growth” value (CAKI-1 [4]; [13]) was 100%. The GI50 (NCI-H322M [5]) was 6.86 µM, the pIC50 (NCI-H322M [5]) was less than 4.00 and the GI50 (HCT-15 [6]) was 3.62 µM. The pIC50 (HCT-15 [6]) was less than 4.00, the GI50 (SF-539) was 3.07 µM and the pIC50 (SF-539) was 4.03. The GI50 (SNB-19) was 4.57 µM, the pIC50 (SNB-19) was less than 4.00 and the GI50 (SNB-75) was 2430 nM. For the same compound, the pIC50 (SNB-75) was less than 4.00, the GI50 (M14) was 4.33 µM and the pIC50 (M14) was 4.03. It also gave a GI50 (OVCAR-3 [7]) of 2600 nM, a pIC50 (OVCAR-3 [7]) of 4.01 and a GI50 (OVCAR-5) of 5.24 µM. For the same compound, the pIC50 (OVCAR-5) was less than 4.00, the GI50 (OVCAR-8) was 4.01 µM and the pIC50 (OVCAR-8) was less than 4.00. It also gave a GI50 (A498) of 2030 nM, a pIC50 (A498) of 5.71 and a GI50 (CAKI-1 [8]) of 2700 nM. It also gave a pIC50 (CAKI-1 [8]) of less than 4.00, a GI50 (SN12C) of 1810 nM and a pIC50 (SN12C) of 5.20. It also gave a GI50 (UO-31) of 2500 nM and a pIC50 (UO-31) of less than 4.00.
